Values quoted from earlier work in US9969726B2, “Metabotropic glutamate receptor negative allosteric modulators (NAMS) and uses thereof” (Sanford-Burnham Medical Research Institute, priority 2014, dated 2018).

Assays:
R6/2 mice = conditions: 20 mg/kg daily subcutaneous injection beginning at 4 weeks; cited from earlier work
[1] = system: cultured spinal cord astrocytes; conditions: astrocytes from wild-type and mGlu2 knockout mice, not mGlu3 knockout mice; cited from earlier work
reserpine-treated rat = conditions: cited from earlier work
SOD1G93A mice = conditions: continuous treatment with 1 or 5 mg/kg/day; cited from earlier work
SMI-32+ motor neurons = conditions: abrogated by anti-GDNF antibodies; cited from earlier work

N[C@@]1(C(=O)O)CO[C@H]2[C@H](C(=O)O)[C@H]21 [LY379268]
phenotype in R6/2 mice (R6/2 mice): dramatically improves the phenotype
GDNF levels [1]: enhanced GDNF levels
locomotor activity (reserpine-treated rat; intracerebroventricular 1, 5, 10, 20 nmol/2 μl, reserpine 5 mg/kg ip): dose-dependent increase in locomotor activity
reversal of reserpine-induced akinesia (reserpine-treated rat; systemic 0.1, 1, 10 mg/kg ip): did not reverse reserpine-induced akinesia
neurological disability (SOD1G93A mice): beneficial effect on neurological disability
protection of motor neurons against excitotoxic death (SMI-32+ motor neurons): protected
